US6906035B2, “Antimicrobial cationic peptides” (priority 1995, dated 2005)
Ends that are not written are not given here.

Experiments:
E. coli = assay: MIC, broth dilution in LB-S; format: cell-based; settings: E. coli (UB 1005); Table 6
Protocol: The biological activity of the peptides can be determined by standard methods known to those of skill in the art, such as “minimal inhibitory concentration (MIC)” assay described in the present examples, whereby the lowest concentration at which no change in OD is observed for a given period of time is recorded as MIC. Alternatively, “fractional inhibitory concentration (FIC)” is also useful for determination of synergy between the peptides of the invention, or the peptides in combination with known antibiotics. FICs are performed by checkerboard titrations of peptides in one dimension of a microtiter plate, and of antibiotics in the other dimension, for example. The FIC is calculated by looking at the impact of one antibiotic on the MIC of the other and vice versa. […] Preferably, an FIC of less than 0.5 is obtained for synergism. As used herein, FIC can be determined as follows: [formula]
(§1) Briefly, cells were grown overnight at 37° C. in LB-S (Luria broth without any salt supplement) and diluted one in 10,000 in the same medium to give concentrations of about 10^4 to 10^5 CFU/ml. The broth dilutions were set up in a 96 well microtiter plate by putting 200 μl of LB-S containing the initial concentration of antibiotic or compound in column 1 and 100 μl of the same medium in columns 2-12. The compounds were diluted by taking 100 μl of broth from column 1 and mixing it with column 2, resulting in a one in two dilution. This was continued to column 10. Finally, 10 μl of bacteria were pipetted into columns 1-11, and the plates incubated overnight at 37° C. The next day the plates were scored for growth in the wells, and the MIC determined.

Red Blood Cells = assay: Red blood cell lysis; format: cell-based; settings: concentration lysing Red Blood Cells
P. aeruginosa = P. aeruginosa (H187); Table 6
Protocol: FICs are performed by checkerboard titrations of peptides in one dimension of a microtiter plate, and of antibiotics in the other dimension, for example. The FIC is calculated by looking at the impact of one antibiotic on the MIC of the other and vice versa. […] Preferably, an FIC of less than 0.5 is obtained for synergism. As used herein, FIC can be determined as follows: [formula]
as §1

In the case of CC[C@H](C)[C@H](NC(=O)[C@H](CC(C)C)NC(=O)[C@H](C)NC(=O)[C@@H]1CCCN1C(=O)[C@H](CC(C)C)NC(=O)CNC(=O)[C@@H](NC(=O)[C@@H](NC(=O)[C@H](CC(C)C)NC(=O)[C@@H](NC(=O)[C@H](CCCCN)NC(=O)[C@H](CCCCN)NC(=O)[C@@H](NC(=O)[C@H](C)NC(=O)[C@@H](NC(=O)[C@@H](NC(=O)[C@H](CC(C)C)NC(=O)[C@H](CCCCN)NC(=O)[C@H](CCCCN)NC(=O)[C@@H](NC(=O)[C@H](Cc1ccccc1)NC(=O)[C@H](CCC(=O)O)NC(=O)[C@H](CCCCN)NC(=O)[C@H](Cc1c[nH]c2ccccc12)NC(=O)[C@@H](N)CCCCN)[C@@H](C)CC)[C@@H](C)O)[C@@H](C)O)C(C)C)C(C)C)[C@@H](C)O)[C@@H](C)O)C(=O)N[C@@H](CO)C(=O)O [compound 492], the “MIC E. coli (UB 1005)” value (E. coli) is reported as 2.4 µg/mL, the “RBC Lysis” value (Red Blood Cells) is reported as greater than 55 µg/mL and the “MIC P. aeruginosa (H187)” value (P. aeruginosa) is reported as 4.8 µg/mL.

“KWKSFIKNLEKVLKPGGLLSNIVTSL [compound 490]” was tested, and the “MIC E. coli (UB 1005)” value (E. coli) was 1 µg/mL, the “RBC Lysis” value (Red Blood Cells) was greater than 55 µg/mL and the “MIC P. aeruginosa (H187)” value (P. aeruginosa) was 8 µg/mL.

For “KWKSFIKNLEKVLKKGPILANLVSIV [compound 491]”, the “MIC E. coli (UB 1005)” value (E. coli) was 2 µg/mL, the “RBC Lysis” value (Red Blood Cells) was greater than 55 µg/mL and the “MIC P. aeruginosa (H187)” value (P. aeruginosa) was 8 µg/mL.
